Measured values: patent publication US5128493A, “Platinum complexes” (Nippon Kayaku Kabushiki Kaisha, priority 1987, dated 1992)

Tests used:
Mouse Leukemia L1210 = test: Antitumor activity against mouse leukemia L1210 in vivo; set-up: species or system mouse (female CDF1); settings: i.p. once a day for 5 consecutive days; for max (T/C): L1210, mean survival time, at optimum dose; for LD50: L1210-bearing female CDF1 mice; for Opt. dose: L1210, daily amount giving the max (T/C)
Protocol: Test of Antitumor Activity Against Mouse Leukemia L1210 in vivo
1×10^5 mouse leukemia L1210 cells were inoculated into the abdominal cavities of 6-week-old female CDF1 mice. From the next day, a compound was administered to them intraperitoneally once a day for 5 consecutive days. Mice of a compound-non-treated group (control group) were administered with physiological saline solution in the same manner. The mean survival time of the compound-treated group and the control group were measured and T/C was calculated from the equation (1): [formula]
In Table 4, max (T/C) means the maximum value of T/C and optimum dose (Opt. dose) means a daily administration amount giving the max (T/C), namely, an optimum daily administration amount.

[1] = test system: mouse Lewis lung carcinoma (LL) cells; test: Growth inhibitory activity against cultured tumor cells, LL; format: cell-based; settings: Tumor cell LL; RPMI 1640, 10% fetal calf serum, 100 μg/ml Kanamycin
Protocol: (§1) Test of Growth Inhibitory Activity Against Various Kinds of Cultured Tumor Cells
(§2) Mouse leukemia L1210 cells were cultured in a RPMI 1640 medium containing 10% of fetal calf serum and mouse Lewis lung carcinoma (LL) cells were cultured in a RPMI 1640 medium containing 10% fetal calf serum and 100 μg/ml of Kanamycin.

[2] = test system: Mouse leukemia L1210 cells; test: Growth inhibitory activity against cultured tumor cells, L1210; format: cell-based; settings: Tumor cell L1210; RPMI 1640, 10% fetal calf serum
Protocol: as §1, §2

[3] = mouse, in vivo, ip
From the text: A compound was singly administered to 6-week-old male CDF1 mice intraperitoneally.

[4] = test system: cis-Platin resistant mouse leukemia L1210 cells; test: Growth inhibitory activity against cis-Platin resistant tumor cells, L1210; format: cell-based; settings: Tumor cell L1210; ratio of IC50 for cis-Platin resistant cells to IC50 for non-resistant cells
From the text: (§3) 1×10^5 mouse leukemia L1210 cells or 1×10^5 mouse leukemia P388 cells were inoculated into the abdominal cavities of CDF1 female mice. […] After 5 days, their tumor cells were inoculated to the abdominal cavities of other CDF1 female mice, and the same treatment was applied.

[5] = test system: cis-Platin resistant mouse leukemia P388 cells; test: Growth inhibitory activity against cis-Platin resistant tumor cells, P388; format: cell-based; settings: Tumor cell P388; ratio of IC50 for cis-Platin resistant cells to IC50 for non-resistant cells
From the text: as §3

[6] = cis-Platin, prior art description; cited from earlier work
[7] = test system: Mouse Lewis Lung Carcinoma; test: Antitumor activity against mouse Lewis lung carcinoma in vivo; set-up: species or system mouse (male BDF1); settings: i.p. once a day for 5 consecutive days; for max (T/C) / Opt. dose: Lewis lung carcinoma; for max (T/C): median survival time, at optimum dose; for Opt. dose: daily amount giving the max (T/C)
Protocol: Test of Antitumor Activity Against Mouse Lewis Lung Carcinoma
1×10^6 mouse Lewis lung carcinoma cells were inoculated into the abdominal cavities of 6-week-old male BDF1 mice. From the next day, a compound was administered to them intraperitoneally once a day for 5 consecutive days. Mice of compound-non-treated group (control group) were administered with physiological saline solution in the same manner. From the median survival time of the compoundtreated group and the control group, T/C was calculated according to the following equation (2): [formula]
In Table 5, max (T/C), and Opt. dose and LD50 mean the same ones in Table 4, respectively.

Compound | Solubility in water | Solubility in physiological saline solution (physiological saline) | max (T/C) (Mouse Leukemia L1210) | LD50 (Mouse Leukemia L1210) | Opt. dose (Mouse Leukemia L1210) | IC50 [1] | IC50 [2] | Body weight ratio [3] | IC50 R/IC50 [4] | IC50 R/IC50 [5] | dissolving in water (in words) [6] | max (T/C) [7] | LD50 ([7]; Lewis lung carcinoma-bearing male BDF1 mice) | Opt. dose [7]
cis-Diethylmalonato-2,3-dimethyl-1,4-butanediamine Platinum [Compound No. 8] | > 15 mg/mL | – | – | – | – | – | – | – | – | – | – | – | – | –
cis-Dichloro-2,3-dimethyl-1,4-butanediamine Platinum [Compound No. 1] | – | > 2 mg/ml | 323 | 3.0 mg/kg | 2.0 mg/kg | 0.43 µg/mL | 0.04 µg/mL | 0.79 | – | – | – | – | – | –
cis-Dimethylmalonato-2,3-dimethyl-1,4-butanediamine Platinum [Compound No. 5] | > 20 mg/mL | – | 245 | – | 32.0 mg/kg | 1.06 µg/mL | 0.40 µg/mL | 0.89 | 1.4 | 6.2 | – | – | – | –
N.N.[Cl][Pt][Cl] [cis-Platin, cis-dichlorodiammineplatinum, reference compound] | – | – | – | – | 4 mg/kg | – | – | – | – | – | dissolving in water slowly | – | – | –
cis-Oxalato-2,3-dimethyl-1,4-butanediamine Platinum [Compound No. 2] | > 3 mg/mL | – | 296 | 7.2 mg/kg | 4.0 mg/kg | 0.65 µg/mL | 0.11 µg/mL | 0.77 | – | – | – | – | – | –
cis-Cyclobutane-1,1-dicarboxylato-2,3-dimethyl-1,4-butanediamine Platinum [Compound No. 4] | – | – | 328 | – | 32.0 mg/kg | 2.10 µg/mL | 1.01 µg/mL | – | – | – | – | 144 | 48.0 mg/kg | 32.0 mg/kg
cis-Malonato-2,3-dimethyl-1,4-butanediamine Platinum [Compound No. 3] | > 30 mg/mL | – | 400 | – | 16.0 mg/kg | 0.95 µg/mL | 0.27 µg/mL | 1.00 | 1.3 | 4.6 | – | 234 | – | 32.0 mg/kg
cis-Ethylmalonato-2,3-dimethyl-1,4-butanediamine Platinum [Compound No. 7] | > 20 mg/mL | – | – | – | – | – | – | – | – | – | – | – | – | –
cis-4-Oxacyclohexane-1,1-dicarboxylato-2,3-dimethyl-1,4-butanediamine Platinum [Compound No. 6] | > 20 mg/mL | – | – | – | – | 1.06 µg/mL | 0.11 µg/mL | – | – | – | – | – | – | –
